Consider three compounds from patent US9822069B2, “Urea derivative or pharmacologically acceptable salt thereof” (KYORIN PHARMACEUTICAL CO. LTD., priority 2013, dated 2017).

pEC50: −log10 of the molar value.

The target of experiment [1] is T1, human FPRL1 (Homo sapiens, UniProt P25090).
T1 construct: expressed in transfected cells; host or cells: HEK293 (JCRB9068, NIBIO), transient transfection with pCMV-script vectors using Lipofectamine 2000
T1 sequence (P25090 1-351): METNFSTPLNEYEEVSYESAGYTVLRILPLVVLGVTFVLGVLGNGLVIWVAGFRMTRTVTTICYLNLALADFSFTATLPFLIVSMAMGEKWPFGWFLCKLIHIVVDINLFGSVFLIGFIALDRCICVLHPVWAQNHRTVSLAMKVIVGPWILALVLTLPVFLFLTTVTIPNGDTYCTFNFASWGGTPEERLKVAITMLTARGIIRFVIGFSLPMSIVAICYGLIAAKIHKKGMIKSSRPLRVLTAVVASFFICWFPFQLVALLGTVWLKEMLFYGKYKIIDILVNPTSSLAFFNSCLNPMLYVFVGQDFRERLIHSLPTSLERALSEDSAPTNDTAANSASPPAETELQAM
As to the kind of experiment: Measurement test of agonist activity on human FPRL1 (test of calcium mobilization in cell, HEK293 with human FPRL1 and Gα15 expression vectors). The experiment is classed as cell-based. The note with it: calcium mobilization in HEK293 cells with human FPRL1 and Gα15 expression vectors. The method, boiled down: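 HEK293 transiently co-transfected with human FPRL1 and Gα15, plated 24 h before assay, loaded with Fluo-4 NW dye plus probenecid. Compounds in eight 10-fold dilutions (DMSO stocks 10^−2 to 10^−9 M, then diluted 100-fold in assay buffer); calcium mobilization read on Flexstation for EC50.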

For experiment [2], the system named is mouse (BALB/c, male). As to the kind of experiment: Effect of lipopolysaccharide induction on neutrophilic infiltration in mouse lung. The experiment is classed as in vivo. The settings on record: 5 h; neutrophil infiltration in BAL fluid, LPS-exposed BALB/c mouse, oral, dose 1 mg/kg; read-out: SUPPRESSION RATIO. The method, then: Effect of Lipopolysaccharide Induction on Neutrophilic Infiltration in Mouse Lung A compound to be tested was orally administrated to a mouse (BALB/c, male), and after 30 minutes, the mouse was placed in a plastic container. Lipopolysaccharide (0.3 mg/mL) dissolved in physiological saline was aerosolized with an ultrasonic wave nebulizer (NE-U17, OMRON Corporation), and exposed to the mouse for 10 minutes. After 5 hours, the anesthetized mouse was sacrificed by exsanguination. A cannula was inserted in the respiratory tract and bronchoalveolar lavage (BAL) with 1 mL of 0.85% NaCl liquid containing 0.4% sodium citrate was carried out. This operation was repeated 3 times, to obtain a BAL fluid. The BAL fluid was centrifuged at 4° C. and ×200 g for 5 minutes, and the pellet was suspended in a physiological saline containing 0.1% BSA. The number of white blood cells was counted using Turks solution with a microscope, and the total white blood cell count was calculated. The white blood cells were fixed on a glass slide using Cytospin 3 (Thermo BioAnalysis Japan K. K.). The cells were stained with Diff-Quik (SYSMEX INTERNATIONAL REAGENTS CO., LTD.), and the number thereof was counted with a microscope, and the neutrophil ratio was calculated. The neutrophil ratio was multiplied by the total white blood cell count to calculate the total neutrophil count. An effect of the compound to be tested represents a percentage (%) of suppression ratio relative to the neutrophil count in a control.

Regarding `COc1ccc([C@@H]2CNC(=O)[C@H]2NC(=O)Nc2ccc(Cl)cc2)cc1` (single isomer, unassigned) [EXAMPLE 1-2, (-)-1-(4-chlorophenyl)-3-[(3S*,4R*)-4-(4-methoxyphenyl)-2-oxopyrrolidin-3-yl]urea], in experiment [1], the pEC50 was 10.05. The inhibition in vivo at 1 mg/kg in experiment [2] was found to be 99.2%.

As to `COc1ccc([C@@H]2CNC(=O)C2NC(=O)Nc2ccc(Cl)cc2)cc1` (mixture of isomers) [Example 1-53, (±)-trans-1-(4-chlorophenyl)-3-[4-(4-methoxyphenyl)-2-oxopyrrolidin-3-yl]urea], the pEC50 in experiment [1] is 9.74. For the same compound, the inhibition in vivo at 1 mg/kg in experiment [2] came out at 78.9%.

On to `COc1cc(F)c([C@@H]2CNC(=O)[C@H]2NC(=O)Nc2ccc(Cl)nc2)c(F)c1` (relative stereo) [Example 1-31, (−)-1-(6-chloropyridin-3-yl)-3-[(3S*,4R*)-4-(2,6-difluoro-4-methoxyphenyl)-2-oxopyrrolidin-3-yl]urea], for which the pEC50 in experiment [1] is 8.57. Moreover, the inhibition in vivo at 1 mg/kg in experiment [2] worked out at 69.7%.

By pEC50 is commonly meant the negative decadic logarithm of the EC50, by convention in mol/L.
